We go through 1 compound from ChEMBL document CHEMBL4808209 (J Med Chem, 2021).

As usually defined, the solubility is the dissolved amount per volume that the medium holds. A low value points to little dissolved substance. In general, IC50 refers to the concentration at which inhibition is half-maximal.

Structures are written as SMILES. Bounds are passed on as bounds.

Series [1] can be described thus: Solubility of the compound in simulated gastric fluid. Type of series: physicochemical.
The nature of series [2]: Clearance in Sprague-Dawley rat at 2 mg/kg, po or 1 mg/kg, iv administered as cassette dose measured after 24 hrs relative to hepatic blood flow. The following applies: in vivo. Type of series: ADME, organism-based.
For another series, the target named is CYP1A2 (Homo sapiens, UniProt P05177). Put plainly: Inhibition of CYP1A2 in human liver microsomes using 7-ethoxyresorufin as substrate substrate in presence of NADPH by LC-MS/MS analysis. The class given is ADME. The settings on record: human, liver microsomes, probe 7-ethoxyresorufin. Background: Microsomes from liver hold many membrane-bound enzymes, among them those of drug oxidation.
Sequence of CYP1A2 (P05177 whole entry): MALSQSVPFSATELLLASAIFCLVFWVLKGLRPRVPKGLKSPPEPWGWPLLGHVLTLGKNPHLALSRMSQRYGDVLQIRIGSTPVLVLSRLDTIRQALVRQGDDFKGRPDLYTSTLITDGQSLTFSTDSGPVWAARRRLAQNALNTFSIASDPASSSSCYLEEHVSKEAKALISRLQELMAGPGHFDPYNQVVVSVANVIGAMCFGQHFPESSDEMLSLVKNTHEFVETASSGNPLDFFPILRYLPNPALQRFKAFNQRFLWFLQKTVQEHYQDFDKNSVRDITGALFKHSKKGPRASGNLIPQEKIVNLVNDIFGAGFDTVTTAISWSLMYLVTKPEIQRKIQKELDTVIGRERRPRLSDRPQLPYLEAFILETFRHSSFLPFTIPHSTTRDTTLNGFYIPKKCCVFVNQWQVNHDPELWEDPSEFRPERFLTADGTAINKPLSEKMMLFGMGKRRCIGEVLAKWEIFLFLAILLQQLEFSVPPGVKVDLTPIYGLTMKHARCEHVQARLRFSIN

The next series addresses CYP2C19 (Homo sapiens, UniProt P33261). Put plainly: Inhibition of CYP2C19 in human liver microsomes using s-mephenytoin as substrate substrate in presence of NADPH by LC-MS/MS analysis. The settings on record: human, liver microsomes, probe s-mephenytoin. The class given is ADME.
Series [3] can be described thus: Toxicity in SCID mouse xenografted with human KATO III stomach cancer cell line assessed as effect on boy weight at 0.03 to 1 mg/kg, po administered once daily for 10 days. Type of series: organism-based. The following applies: in vivo, 240 h, dose 0.03-1 mg/kg, time 10 day. (In xenograft studies the graft and the host belong to different species.)
For a further series, the target named is D(3) dopamine receptor (Homo sapiens, UniProt P35462). In words: Inhibition of dopamine D3 receptor (unknown origin) at 0.1 to 1 uM. The settings on record: dose 0.1-1 µM.
Sequence of D(3) dopamine receptor (P35462 whole entry): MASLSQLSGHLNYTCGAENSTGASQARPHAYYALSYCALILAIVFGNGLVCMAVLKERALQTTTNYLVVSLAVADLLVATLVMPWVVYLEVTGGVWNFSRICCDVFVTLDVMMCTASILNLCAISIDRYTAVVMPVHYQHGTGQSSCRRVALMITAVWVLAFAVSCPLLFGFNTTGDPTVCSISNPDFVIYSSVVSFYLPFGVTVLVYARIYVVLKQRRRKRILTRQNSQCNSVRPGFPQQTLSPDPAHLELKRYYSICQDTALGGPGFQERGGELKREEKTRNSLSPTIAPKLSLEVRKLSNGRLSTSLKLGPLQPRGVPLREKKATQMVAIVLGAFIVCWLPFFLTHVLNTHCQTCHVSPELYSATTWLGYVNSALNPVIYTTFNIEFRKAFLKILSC
Another series deals with Histamine H2 receptor (Homo sapiens, UniProt P25021). Put plainly: Inhibition of histamine H2 receptor (unknown origin) at 0.1 to 1 uM. The settings on record: dose 0.1-1 µM.
Sequence of Histamine H2 receptor (P25021 whole entry): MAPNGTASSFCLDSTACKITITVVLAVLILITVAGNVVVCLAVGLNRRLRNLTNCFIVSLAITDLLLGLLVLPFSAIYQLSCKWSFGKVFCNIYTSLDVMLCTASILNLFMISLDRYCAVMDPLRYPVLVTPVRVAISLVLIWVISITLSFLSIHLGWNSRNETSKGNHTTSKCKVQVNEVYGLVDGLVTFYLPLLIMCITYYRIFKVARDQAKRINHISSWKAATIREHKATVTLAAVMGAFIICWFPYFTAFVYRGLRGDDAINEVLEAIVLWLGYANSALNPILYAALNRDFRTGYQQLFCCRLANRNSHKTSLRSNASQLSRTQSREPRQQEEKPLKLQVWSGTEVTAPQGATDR
The target of another series is Nitric oxide synthase 1 (Homo sapiens, UniProt P29475). Put plainly: Inhibition of NOS (unknown origin) at 0.1 to 1 uM. The settings on record: dose 0.1-1 µM.
Sequence of Nitric oxide synthase 1 (P29475 whole entry): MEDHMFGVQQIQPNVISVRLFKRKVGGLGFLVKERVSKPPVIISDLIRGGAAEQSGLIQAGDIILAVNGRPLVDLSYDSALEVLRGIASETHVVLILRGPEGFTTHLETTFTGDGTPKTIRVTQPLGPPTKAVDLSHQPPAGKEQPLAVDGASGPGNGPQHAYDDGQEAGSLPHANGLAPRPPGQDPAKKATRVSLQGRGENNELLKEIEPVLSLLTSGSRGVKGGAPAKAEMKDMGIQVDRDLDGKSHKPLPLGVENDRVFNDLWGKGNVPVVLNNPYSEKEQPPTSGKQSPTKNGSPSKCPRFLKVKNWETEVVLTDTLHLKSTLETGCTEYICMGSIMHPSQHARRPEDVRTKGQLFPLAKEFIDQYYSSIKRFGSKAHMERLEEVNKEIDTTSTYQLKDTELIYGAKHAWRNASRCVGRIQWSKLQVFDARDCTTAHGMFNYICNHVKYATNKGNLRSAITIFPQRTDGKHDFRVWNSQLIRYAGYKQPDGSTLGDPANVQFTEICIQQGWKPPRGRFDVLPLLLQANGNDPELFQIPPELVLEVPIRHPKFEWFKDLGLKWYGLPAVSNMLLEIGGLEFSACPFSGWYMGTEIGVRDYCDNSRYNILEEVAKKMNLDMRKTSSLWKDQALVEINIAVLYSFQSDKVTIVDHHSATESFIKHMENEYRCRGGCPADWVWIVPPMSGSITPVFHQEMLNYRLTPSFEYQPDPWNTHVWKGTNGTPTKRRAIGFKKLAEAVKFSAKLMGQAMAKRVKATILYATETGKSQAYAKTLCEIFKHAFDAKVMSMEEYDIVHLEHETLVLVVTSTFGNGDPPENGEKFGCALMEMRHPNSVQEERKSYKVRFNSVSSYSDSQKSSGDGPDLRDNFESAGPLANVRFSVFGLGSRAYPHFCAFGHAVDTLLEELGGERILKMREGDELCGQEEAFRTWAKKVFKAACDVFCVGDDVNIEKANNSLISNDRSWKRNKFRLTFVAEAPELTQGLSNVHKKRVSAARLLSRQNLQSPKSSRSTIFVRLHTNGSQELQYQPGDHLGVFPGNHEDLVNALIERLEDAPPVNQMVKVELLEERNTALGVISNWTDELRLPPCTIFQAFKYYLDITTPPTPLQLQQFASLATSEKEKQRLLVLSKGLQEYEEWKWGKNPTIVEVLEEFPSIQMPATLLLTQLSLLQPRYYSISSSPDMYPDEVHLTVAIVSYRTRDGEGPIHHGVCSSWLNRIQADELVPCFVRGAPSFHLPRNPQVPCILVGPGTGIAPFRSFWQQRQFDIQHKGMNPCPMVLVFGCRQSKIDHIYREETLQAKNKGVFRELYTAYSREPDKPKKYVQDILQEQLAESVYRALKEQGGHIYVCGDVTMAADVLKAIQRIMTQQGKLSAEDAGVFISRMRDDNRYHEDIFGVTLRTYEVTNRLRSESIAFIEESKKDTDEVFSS
A further series has as its target Endothelin-1 receptor (Homo sapiens, UniProt P25101). Put plainly: Inhibition of human ETA receptor at 0.1 to 1 uM. The settings on record: dose 0.1-1 µM.
For another series, the target named is Substance-P receptor (Homo sapiens, UniProt P25103). In words: Inhibition of NK-1 (unknown origin) at 0.1 to 1 uM. The settings on record: dose 0.1-1 µM.
Sequence of Substance-P receptor (P25103 whole entry): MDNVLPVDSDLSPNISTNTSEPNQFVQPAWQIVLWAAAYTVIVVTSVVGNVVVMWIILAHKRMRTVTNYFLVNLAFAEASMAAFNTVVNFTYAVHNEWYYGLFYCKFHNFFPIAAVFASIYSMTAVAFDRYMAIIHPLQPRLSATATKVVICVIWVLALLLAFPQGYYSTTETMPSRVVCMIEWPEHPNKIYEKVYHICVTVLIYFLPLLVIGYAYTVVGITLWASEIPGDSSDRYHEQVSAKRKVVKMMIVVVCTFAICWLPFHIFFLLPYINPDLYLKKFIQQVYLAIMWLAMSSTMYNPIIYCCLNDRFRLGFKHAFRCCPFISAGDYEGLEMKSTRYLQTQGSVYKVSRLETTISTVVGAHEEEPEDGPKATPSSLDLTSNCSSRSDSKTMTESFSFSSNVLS

Sequence of CYP2C19 (P33261 whole entry): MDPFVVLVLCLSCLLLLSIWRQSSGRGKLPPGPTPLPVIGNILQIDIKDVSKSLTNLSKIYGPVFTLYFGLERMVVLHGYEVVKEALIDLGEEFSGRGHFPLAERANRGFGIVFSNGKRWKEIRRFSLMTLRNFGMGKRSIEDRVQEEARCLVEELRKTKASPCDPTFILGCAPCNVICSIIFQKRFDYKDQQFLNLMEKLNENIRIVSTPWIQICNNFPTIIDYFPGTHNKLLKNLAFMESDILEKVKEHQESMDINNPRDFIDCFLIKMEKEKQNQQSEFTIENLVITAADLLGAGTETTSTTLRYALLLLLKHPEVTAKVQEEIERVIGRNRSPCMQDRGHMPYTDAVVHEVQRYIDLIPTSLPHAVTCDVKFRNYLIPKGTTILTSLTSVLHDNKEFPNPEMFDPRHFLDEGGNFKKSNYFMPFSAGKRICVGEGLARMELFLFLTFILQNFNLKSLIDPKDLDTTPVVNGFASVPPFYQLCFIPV
Sequence of Endothelin-1 receptor (P25101 whole entry): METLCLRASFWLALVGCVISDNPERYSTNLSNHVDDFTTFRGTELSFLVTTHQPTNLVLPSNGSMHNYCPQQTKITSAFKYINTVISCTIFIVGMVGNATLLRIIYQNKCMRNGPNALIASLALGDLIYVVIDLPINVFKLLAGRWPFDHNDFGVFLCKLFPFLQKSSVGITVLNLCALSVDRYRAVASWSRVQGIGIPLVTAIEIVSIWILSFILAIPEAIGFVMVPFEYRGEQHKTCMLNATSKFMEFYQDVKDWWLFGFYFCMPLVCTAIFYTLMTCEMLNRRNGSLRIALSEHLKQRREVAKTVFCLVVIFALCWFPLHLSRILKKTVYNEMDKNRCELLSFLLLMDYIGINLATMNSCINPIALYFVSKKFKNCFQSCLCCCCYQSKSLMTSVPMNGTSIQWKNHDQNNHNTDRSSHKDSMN

`CCN1C(=O)N(c2c(F)c(OC)cc(OC)c2F)Cc2cnc3[nH]c(CN4CCOCC4)cc3c21` [PEMIGATINIB]: in series [1], the solubility was over 6000 µg/mL. For the same compound, the CL in [2] amounted to 31%. Besides, the IC50 at CYP1A2 and on CYP2C19 was over 25 µM each time. For the same compound, in series [3], the Activity entry was “Non-Toxic”. Further, the “inhibition (INH)” value at D(3) dopamine receptor, at Histamine H2 receptor, at Nitric oxide synthase 1, against Endothelin-1 receptor and against Substance-P receptor was “Not Active” throughout.
